Laboratory results: PMC9289672, “Optimization of Antibacterial Activity in Tibetan Swine α-Helix Peptide TP by Site-Directed Mutagenesis” (Frontiers in Microbiology, 2022)
Where no end group is shown, it is not given here.

Columns and labels:
[1] = test system: hRBCs (human red blood cells); experiment: Hemolytic activity; details: three independent assays, two in parallel
Experimental: (§5) The cytotoxicity of each peptide was assessed with IPEC-J12 and HEK 293T cells. […] Each trial was conducted two times in parallel. A total of three independent assays were carried out.

E. coli 25922 [2] = type: cell-based, Escherichia coli; details: 25922, 4 h
Experimental: (§1) The salt and serum stability of polypeptides were determined by improved MIC method (Lv et al., [2014]). Peptides were incubated with BSA containing different final concentrations of salt ions (150 mM NaCl, 4.5 mM KCl, 6 μm NH4Cl, 8 μm ZnCl2, 1 mM MgCl2, 2 mM CaCl2, and 4 μm FeCl3) (Wang et al., [2018]). To determine the stability of the peptide in serum, peptide was incubated with different proportions of serum (50%, 100%) at 37°C for 4 h. The following steps are the same as those for antimicrobial activity. Each trial was conducted two times in parallel. A total of three independent assays were carried out.

[3] = test system: IPEC-J2 and HEK 293T cells
Experimental: as §5

[4] = test system: Salmonella typhimurium C7731; details: MHB, bacteria diluted to 2 × 10^5 CFU/ml, peptide 1-128 μm, 37°C 18-24 h, OD 492 nm; three independent assays, two in parallel
Source text: (§2) The bacteria strains Escherichia coli ATCC 25922, Escherichia coli UB1005, Salmonella typhimurium ATCC 14028, Salmonella typhimurium C7731, Pseudomonas aeruginosa ATCC 27853, Pseudomonas aeruginosa PAO1, Staphylococcus aureus ATCC 29213, Staphylococcus aureus ATCC 25923, Methicillin-resistant Staphylococcus aureus (MRSA) 43300, Enterococcus faecalis ATCC 29212, and Staphylococcus epidermidis ATCC 12228 were obtained from the College of Veterinary Medicine, Northeast Agricultural University (Harbin, China).
(§3) The bacteria were cultured overnight in the MHB medium and transferred to the new MHB the next day until the bacteria reached the exponential growth stage. The bacteria were diluted with MHB to 2 × 10^5 CFU/ml. About 50 μl of polypeptide and equal volume of bacterial suspension was added to a 96-well plate to give the final concentration of polypeptide between 1 and 128 μm. The last two columns are negative (MHB only) and positive (bacterial and MHB) controls and incubated at 37°C for 18–24 h. Optical density was measured at an absorbance wavelength of 492 nm using a microplate reader (Tecan GENios F129004, Tecan, Austria). At least three independent measurements were taken. Each trial was conducted two times in parallel. A total of three independent assays were carried out.

[5] = test system: Staphylococcus aureus ATCC 25923
Source text: as §2, §3

[6] = test system: Staphylococcus aureus ATCC 29213
Source text: as §2, §3

[7] = test system: Enterococcus faecalis ATCC 29212
Source text: as §2, §3

[8] = test system: Pseudomonas aeruginosa PAO1
Source text: as §2, §3

[9] = test system: Methicillin-resistant Staphylococcus aureus (MRSA) 43300; details: Methicillin-resistant 43300
Source text: as §2, §3

[10] = test system: Escherichia coli ATCC 25922
Source text: as §2, §3

Escherichia coli UB1005 = details: MHB, bacteria diluted to 2 × 10^5 CFU/ml, peptide 1-128 μm, 37°C 18-24 h, OD 492 nm; three independent assays, two in parallel
Source text: as §2, §3

[11] = test system: Staphylococcus epidermidis ATCC 12228
Source text: as §2, §3

[12] = test system: Pseudomonas aeruginosa ATCC 27853
Source text: as §2, §3

[13] = test system: Salmonella typhimurium ATCC 14028
Source text: as §2, §3

S. aureus 29213 = type: cell-based, Staphylococcus aureus; details: 29213, 4 h
Experimental: as §1

Gram-positive bacteria = experiment: Geometric mean of MIC and therapeutic index; type: cell-based; details: MHC/GM; 128 μm used when 50% hemolysis not observed at 128 μm
Experimental: as §3
(§4) Trp is a hydrophobic amino acid with aromatic side chains. It is a special amino acid in peptide design. Previous studies have pointed out that introducing amino acids will also bring toxicity while improving activity. […] For further evaluating the cell selectivity of the peptides, we also calculated the SI which defined as the ratio of MHC to the geometric mean (GM) (Dufourc, [2008]).

Gram-negative bacteria = experiment: Geometric mean of MIC and therapeutic index; type: cell-based; details: MHC/GM; 128 μm used when 50% hemolysis not observed at 128 μm
Experimental: as §3, §4

all strains in Table 2 = experiment: Geometric mean of MIC and therapeutic index; type: cell-based; details: MHC/GM; 128 μm used when 50% hemolysis not observed at 128 μm
Experimental: as §3
Trp is a hydrophobic amino acid with aromatic side chains. It is a special amino acid in peptide design. Previous studies have pointed out that introducing amino acids will also bring toxicity while improving activity. Therefore, at the beginning of the design, we predicted that selecting Trp as hydrophobic amino acid to substitute H-H position would bring certain toxicity to the peptide. Thus, as expected, the introduction of Trp increases the activity and toxicity of these peptides. […] Meanwhile, the virulence of TP(i+4) 1&2&5&6 and TP(i+4) 1&2&6&7 was lower than that of TP(i+4) 1&2&5&7. We infer that the location of hydrophobic centers can effectively reduce peptide toxicity by Trp substitution. For further evaluating the cell selectivity of the peptides, we also calculated the SI which defined as the ratio of MHC to the geometric mean (GM) (Dufourc, [2008]).

E. coli 25922 [14] = experiment: In vivo efficacy assay (peritonitis-sepsis model); details: C57BL/6 mice, i.p. E. coli 25922; peptide 5 mg/kg i.p. at 0 and 1 h, colistin 1 mg/kg; 12 h after infection; vs infected group, p < 0.05
Experimental: A total of 32 female C57BL/6 mice (weighing about 20 g) aged from 6 to 8 weeks were selected. The mice in each group were divided into 4 groups by blind method (n = 8): […] (d) treatment group (E. coli 25922 + Colistin). Mice in control group were intraperitoneally injected with 100 μl normal saline, and mice in other groups were intraperitoneally injected with 100 μl (~1 × 10^8 CFU/ml) diluted bacterial solution. The peptide treatment group was intraperitoneally injected with TP(i+4) 1&2&5 (5 mg/kg) at 0 and 1 h after infection, and the control group and antibiotic treatment group were injected with normal saline and colistin (1 mg/kg), respectively. The mice were then euthanized 12 h after infection. After weighing liver, lung, spleen, and kidney, the bacterial load of each organ was determined, and the histopathological changes in the organ sections were analyzed by H&E staining. Serum levels of inflammatory factors IL-6, IL-1β, and TNF-α were detected by ELISA kits (Shanghai Jinma).

E. coli 25922 [15] = experiment: Drug resistance assessment (continuous culture at sub-MIC); type: cell-based, Escherichia coli; details: E. coli 25922, serial passage at sub-MIC
Experimental: Continuous culture method was used to evaluate the drug resistance of peptides. Colistin was used as model antibiotic to test the resistance of E. coli 25922. First, minimum inhibitory concentration (MIC) was determined for peptide and Colistin Next, the bacteria with each sub-MIC concentration were diluted to 2 × 10^5 CFU/ml with MHB for the MIC determination of the next passage. The process was repeated 30 times.

ASVVKKLWKGVWKLLK-NH2 [TP(i+4) 1&2&5] was tested, and the “MHC (concentration of peptide that causes hemolysis of 50% of human red blood cells)” value [1] was over 128 µM, the “MIC after incubation with 100% serum” value (E. coli 25922 [2]) was 2 µM and the “MIC in the presence of Ca2+” value (E. coli 25922 [2]) was 4 µM. The “MIC in the presence of Fe3+” value (E. coli 25922 [2]) was 1 µM, the “MIC in the presence of K+” value (E. coli 25922 [2]) was 2 µM and the “MIC in the presence of Mg2+” value (E. coli 25922 [2]) was 2 µM. The “MIC in the presence of NH4+” value (E. coli 25922 [2]) was 2 µM, the “MIC in the presence of Na+” value (E. coli 25922 [2]) was 4 µM and the “MIC in the presence of Zn2+” value (E. coli 25922 [2]) was 1 µM. The “MIC, Control” value (E. coli 25922 [2]) was 1 µM, the cell viability [3] was ~ 50% and the “MIC, S. typhimurium 7731” value [4] was 4 µM. The “MIC, S. aureus 25923” value [5] was 2 µM, the “MIC, S. aureus 29213” value [6] was 2 µM and the “MIC, E. faecalis 29212” value [7] was 2 µM. For the same substance, the “MIC, P. aeruginosa PAO1” value [8] was 2 µM, the “MIC, S. aureus 43300” value [9] was 2 µM and the “MIC, E. coli 25922” value [10] was 1 µM. For the same substance, the “MIC, E. coli UB1005” value (Escherichia coli UB1005) was 2 µM, the “MIC, S. epidermidis 12228” value [11] was 2 µM and the “MIC, P. aeruginosa 27853” value [12] was 2 µM. The “MIC, S. typhimurium 14028” value [13] was 2 µM, the “MIC after incubation with 100% serum” value (S. aureus 29213) was 8 µM and the “MIC in the presence of Ca2+” value (S. aureus 29213) was 2 µM. For the same substance, the “MIC in the presence of Fe3+” value (S. aureus 29213) was 2 µM, the “MIC in the presence of K+” value (S. aureus 29213) was 1 µM and the “MIC in the presence of Mg2+” value (S. aureus 29213) was 2 µM. For the same substance, the “MIC in the presence of NH4+” value (S. aureus 29213) was 2 µM, the “MIC in the presence of Na+” value (S. aureus 29213) was 2 µM and the “MIC in the presence of Zn2+” value (S. aureus 29213) was 1 µM. The “MIC, Control” value (S. aureus 29213) was 2 µM, the “Therapeutic index (TI), Gram-positive bacteria” value (Gram-positive bacteria) was 64.00 and the “Therapeutic index (TI), Gram-negative bacteria” value (Gram-negative bacteria) was 64.00. For the same substance, the “Therapeutic index (TI) / selectivity index (SI), All” value (all strains in Table 2) was 64.00.
Colistin was tested, and the “bacterial load in organs (liver, kidney, spleen, lungs)” value (E. coli 25922 [14]) was “significantly reduced”, the “generation at which resistance appeared” value (E. coli 25922 [15]) was “sixth generation” and the “increase in MIC values after 30 generations” value (E. coli 25922 [15]; 30 passages) was 256 fold.
